# Assay results as given in BindingDB's records for doi:10.1021/acs.jnatprod.0c01136 (Chinese Academy of Sciences, 2021).
# Experiment: Inhibition of spike glycoprotein S in SARS-CoV-2 pseudovirus infected in human 293T/ACE2 cells assessed as inhibition of viral infection pretreated the virus for 30 mins followed by viral infection measured after 48 hrs by luciferase reporter gene assay
row,Compound,IC50
1,COc1c(O)c2c(=O)cc(OC)c3c4c(OC)cc(=O)c5c(O)c(OC)c6c(c(c1C[C@](C)(O)[C@H]6C(C)=O)c23)c54,120 nM
2,COC1=C(CC(C)=O)C(=O)c2c(c(O)cc(OC)c2-c2c(OC)cc(O)c3c2C(=O)C(CC(C)=O)=C(OC)C3=O)C1=O,170 nM
3,COc1c2c3c4c(c(OC)c(=O)c5c(O)cc(OC)c(c6c(OC)cc(O)c(c1=O)c63)c54)[C@@H](C(C)=O)[C@@](C)(O)C2 [Hypocrellin A],38 nM
